Measurements reported in US5925639A, “Keto amide derivatives useful as farnesyl protein transferase inhibitors” (Schering Corporation, priority 1997, dated 1999).

Experiments:
[1] = target: farnesyl protein transferase (Homo sapiens, UniProt P49354+P49356); assay: FPT IC50 (inhibition of farnesyl protein transferase, in vitro enzyme assay); type: biochemical
Description: (§1) FPT IC50 (inhibition of farnesyl protein transferase, in vitro enzyme assay), COS Cell IC50 (Cell-Based Assay), GGPT IC50 (inhibition of geranylgeranyl protein transferase, in vitro enzyme assay), Cell Mat Assay, and anti-tumor activity (in vivo anti-tumor studies) are determined by the assay procedures described in WO 95/10516.

COS Cell = COS Cell IC50 (Cell-Based Assay)
Description: as §1

Compound | IC50 [1] [µM] | IC50 (COS Cell) [µM]
O=C(CCC(=O)N1CCC([C@H]2c3ncc(Br)cc3CCc3cc(Cl)cc(Br)c32)CC1)c1ccccc1 [Example 1] | 0.021 | 
O=C(C(=O)N1CCC([C@H]2c3ncc(Br)cc3CCc3cc(Cl)cc(Br)c32)CC1)c1ccccc1 [Example 2] | 0.065 | 
CC(=O)CCC(=O)N1CCC([C@H]2c3ncc(Br)cc3CCc3cc(Cl)cc(Br)c32)CC1 [Example 3] | 0.0034 | 0.054
CC(=O)CCCC(=O)N1CCC([C@H]2c3ncc(Br)cc3CCc3cc(Cl)cc(Br)c32)CC1 [Example 4] | 0.0076 | 0.01
CC(=O)CC(=O)CCC(=O)N1CCC([C@H]2c3ncc(Br)cc3CCc3cc(Cl)cc(Br)c32)CC1 [Example 5] | 0.0092 | 0.175
CC(=O)C(=O)N1CCC([C@H]2c3ncc(Br)cc3CCc3cc(Cl)cc(Br)c32)CC1 [Example 6] | 0.046 | 
C/C(CCC(=O)N1CCC([C@H]2c3ncc(Br)cc3CCc3cc(Cl)cc(Br)c32)CC1)=N/O [Example 7] | 0.011 | 
C/C(CCC(=O)N1CCC([C@H]2c3ncc(Br)cc3CCc3cc(Cl)cc(Br)c32)CC1)=N\O [Example 8] | 0.0049 | 0.052
O=C(/C(=N\O)c1ccccc1)N1CCC([C@H]2c3ncc(Br)cc3CCc3cc(Cl)cc(Br)c32)CC1 [Example 9] | > 0.15 | 
O=C(CC/C(=N\O)c1ccccc1)N1CCC([C@H]2c3ncc(Br)cc3CCc3cc(Cl)cc(Br)c32)CC1 [Example 10] | 0.0047 | 
CO/N=C(\CCC(=O)N1CCC([C@H]2c3ncc(Br)cc3CCc3cc(Cl)cc(Br)c32)CC1)c1ccccc1 [Example 11] | 0.088 | 
CC(CCC(=O)N1CCC([C@H]2c3ncc(Br)cc3CCc3cc(Cl)cc(Br)c32)CC1)=NNC(N)=O [Example 12] | 0.0097 | 
CC(CCC(=O)N1CCC([C@H]2c3ncc(Br)cc3CCc3cc(Cl)cc(Br)c32)CC1)=NNC(=O)C(N)=O [Example 13] | 0.0069 | 
